The results in this text go back to ChEMBL document CHEMBL5150077, “Identification of TUL01101: A Novel Potent and Selective JAK1 Inhibitor for the Treatment of Rheumatoid Arthritis” (J Med Chem, 2022).

A short description of data set [1]: in vivo. As to conditions: C57BL/6, mouse, po, 15 mg/kg.
Data set [2] has as its system Mus musculus. The data set is described as follows: Antiarthritic activity in collagen-induced rheumatoid arthritis DBA/1 mouse model assessed as recovery of body weight at 15 mg/kg, po BID administered for 14 days starting from 7 days before immunization to 21 days after immunization and measured on day 22 post immunization. Type of data set: functional, organism-based. As to conditions: time 14.0 day.

The test system of data set [3] is Mus musculus. Briefly: Antiarthritic activity in collagen-induced rheumatoid arthritis DBA/1 mouse model assessed as reduction in incidence rate at 15 mg/kg, po BID administered for 14 days starting from 7 days before immunization to 21 days after immunization and measured on day 34 post immunization. Type of data set: functional. Also noted: scale not given: the % may be the effect or the level left. As to conditions: time 14 day.

The target in data set [4] is Glycogen synthase kinase-3 beta (Homo sapiens) (UniProt P49841). The data set is described as follows: Inhibition of human GSK3beta assessed as residual activity at 30 uM relative to control.
The subject of data set [5] is Rattus norvegicus. Briefly: Antiarthritic activity in adjuvant-induced arthritis rat model assessed as clinical score at 3 mg/kg, po administered twice a day for 14 days starting from day 13 to 27 post immunization and measured every 3 days a week. In kind it is functional. As to conditions: time 14 day.
Data set [6] in a line: in vivo. As to conditions: Sprague-Dawley, rat, po, 10 mg/kg.
The target in data set [7] is Proto-oncogene tyrosine-protein kinase Src (Homo sapiens) (UniProt P12931). The data set is described as follows: Inhibition of human Src (1 to 530 residues) assessed as residual activity at 30 uM relative to control.
The subject of data set [8] is Rattus norvegicus. The data set is described as follows: Antiarthritic activity in adjuvant-induced arthritis rat model assessed as reduction in paw volume at 1 mg/kg, po administered twice a day for 14 days starting from day 13 to 27 post immunization and measured every 3 days a week. In kind it is functional. As to conditions: time 14 day.
For data set [9], the target named is CDK2/Cyclin A2 (Homo sapiens) (UniProt P24941+P20248). Briefly: Inhibition of human CDK2/Cyclin A assessed as residual activity at 30 uM relative to control. In kind it is protein-complex assay.
Data set [10] deals with Serine/threonine-protein kinase MAK (Homo sapiens) (UniProt P20794). The data set is described as follows: Inhibition of human MAK assessed as residual activity at 30 uM relative to control.
The nature of data set [11]: Toxicity in rat assessed as reduction in food intake at 10 mg/kg/day, po administered via gavage once a day pretreated for 9 weeks prior to co-cage and measured on day 74. As to conditions: in vivo, 1776 h, time 74 day. Type of data set: organism-based. More on the design: scale not given: the % may be the effect or the level left.
Data set [12] addresses Dual specificity tyrosine-phosphorylation-regulated kinase 3 (Homo sapiens) (UniProt O43781). Briefly: Inhibition of human DYRK3 assessed as residual activity at 30 uM relative to control.
The target in data set [13] is Mitogen-activated protein kinase 8 (Homo sapiens) (UniProt P45983). Briefly: Inhibition of human JNK1-alpha1 assessed as residual activity at 30 uM relative to control.
Data set [14] concerns the target Insulin-like growth factor 1 receptor (Homo sapiens) (UniProt P08069). Briefly: Inhibition of human IGF1R assessed as residual activity at 30 uM relative to control.
Data set [15] addresses Serine/threonine-protein kinase mTOR (Homo sapiens) (UniProt P42345). Briefly: Inhibition of human mTOR assessed as residual activity at 30 uM relative to control.
Data set [16] concerns the target Aurora kinase A (Homo sapiens) (UniProt O14965). Briefly: Inhibition of human Aurora A assessed as residual activity at 30 uM relative to control.
Data set [17] is described as follows: Clearance in Sprague-Dawley rat at 1 mg/kg, iv measured for 24 hrs by LC-MS/MS analysis. As to conditions: in vivo. In kind it is ADME, organism-based.
Data set [18] deals with Epidermal growth factor receptor (Homo sapiens) (UniProt P00533). Briefly: Inhibition of human EGFR assessed as residual activity at 30 uM relative to control.
The target of data set [19] is Vascular endothelial growth factor receptor 2 (Homo sapiens) (UniProt P35968). Briefly: Inhibition of human KDR assessed as residual activity at 30 uM relative to control.
Data set [20] addresses 5'-AMP-activated protein kinase catalytic subunit alpha-1 (Homo sapiens) (UniProt Q13131). Briefly: Inhibition of human AMPKalpha1 assessed as residual activity at 30 uM relative to control.
Data set [21] relates to Mus musculus. Briefly: Antiarthritic activity in collagen-induced rheumatoid arthritis DBA/1 mouse model assessed as inhibition rate at 15 mg/kg, po BID administered for 14 days starting from 7 days before immunization to 21 days after immunization and measured on day 41 post immunization. Type of data set: functional. As to conditions: DBA/1, 336 h, time 14 day.
Data set [22] concerns the target Tyrosine-protein kinase ITK/TSK (Homo sapiens) (UniProt Q08881). Briefly: Inhibition of human ITK assessed as residual activity at 30 uM relative to control.
The subject of data set [23] is Mus musculus. Briefly: Antiarthritic activity in collagen-induced rheumatoid arthritis DBA/1 mouse model assessed as reduction in clinical score at 15 mg/kg, po BID administered for 14 days starting from 7 days before immunization to 21 days after immunization and measured on day 41 post immunization (reference value: 5.75). Type of data set: functional. As to conditions: time 14 day.

The target of data set [24] is Cytoplasmic tyrosine-protein kinase BMX (Homo sapiens) (UniProt P51813). Briefly: Inhibition of human BMX assessed as residual activity at 30 uM relative to control.
The nature of data set [25]: AUC in Sprague-Dawley rat at 10 mg/kg, po measured for 24 hrs by LC-MS/MS analysis. Type of data set: ADME, organism-based. More on the design: time 24 hrs, dose 10 mg/kg, route po. As to conditions: in vivo.
For data set [26], the system named is Rattus norvegicus. The data set is described as follows: Antiarthritic activity in adjuvant-induced arthritis rat model assessed as recovery of body weight at 1 to 30 mg/kg, po administered twice a day for 14 days starting from day 13 to 27 post immunization and measured every 3 days a week. Type of data set: functional, organism-based. As to conditions: dose 1-30 mg/kg, time 14.0 day.

Another data set is filed under the species Homo sapiens. Briefly: Inhibition of human CDK1/Cyclin B assessed as residual activity at 30 uM relative to control.
Data set [27] addresses Tyrosine-protein kinase SYK (Homo sapiens) (UniProt P43405). The data set is described as follows: Inhibition of human SYK assessed as residual activity at 30 uM relative to control.
Data set [28] addresses Interleukin-1 receptor-associated kinase 4 (Homo sapiens) (UniProt Q9NWZ3). The data set is described as follows: Inhibition of human IRAK4 assessed as residual activity at 30 uM relative to control.
Data set [29] is described as follows: AUC in beagle dog at 5 mg/kg, po measured for 24 hrs by LC-MS/MS analysis. In kind it is ADME, organism-based, Canis lupus familiaris. More on the design: time 24 hrs, dose 5 mg/kg, route po. As to conditions: in vivo.
Data set [30] can be described thus: Volume of distribution at steady state in beagle dog at 0.2 mg/kg, iv measured for 24 hrs by LC-MS/MS analysis. Type of data set: ADME, organism-based, Canis lupus familiaris. As to conditions: in vivo, read-out: Vdss.
A short description of data set [31]: in vivo. As to conditions: beagle, dog, po, 5 mg/kg.
Data set [32] concerns the target Serine/threonine-protein kinase PAK 2 (Homo sapiens) (UniProt Q13177). The data set is described as follows: Inhibition of human PAK2 assessed as residual activity at 30 uM relative to control.
In data set [33] the target is Mitogen-activated protein kinase 1 (Homo sapiens) (UniProt P28482). Briefly: Inhibition of human MAPK1 assessed as residual activity at 30 uM relative to control.
Data set [34] relates to Rattus norvegicus. The data set is described as follows: Antiarthritic activity in adjuvant-induced arthritis rat model assessed as clinical score at 30 mg/kg, po administered twice a day for 14 days starting from day 13 to 27 post immunization and measured every 3 days a week. As to conditions: time 14 day. Type of data set: functional.
Data set [35] deals with Platelet-derived growth factor receptor alpha (Homo sapiens) (UniProt P16234). Briefly: Inhibition of human PDGFRalpha assessed as residual activity at 30 uM relative to control.

Calls of active or inactive are those of the source. No cut-off for these calls is given here.

Chain of Dual specificity tyrosine-phosphorylation-regulated kinase 3 (Homo sapiens) (O43781 whole entry): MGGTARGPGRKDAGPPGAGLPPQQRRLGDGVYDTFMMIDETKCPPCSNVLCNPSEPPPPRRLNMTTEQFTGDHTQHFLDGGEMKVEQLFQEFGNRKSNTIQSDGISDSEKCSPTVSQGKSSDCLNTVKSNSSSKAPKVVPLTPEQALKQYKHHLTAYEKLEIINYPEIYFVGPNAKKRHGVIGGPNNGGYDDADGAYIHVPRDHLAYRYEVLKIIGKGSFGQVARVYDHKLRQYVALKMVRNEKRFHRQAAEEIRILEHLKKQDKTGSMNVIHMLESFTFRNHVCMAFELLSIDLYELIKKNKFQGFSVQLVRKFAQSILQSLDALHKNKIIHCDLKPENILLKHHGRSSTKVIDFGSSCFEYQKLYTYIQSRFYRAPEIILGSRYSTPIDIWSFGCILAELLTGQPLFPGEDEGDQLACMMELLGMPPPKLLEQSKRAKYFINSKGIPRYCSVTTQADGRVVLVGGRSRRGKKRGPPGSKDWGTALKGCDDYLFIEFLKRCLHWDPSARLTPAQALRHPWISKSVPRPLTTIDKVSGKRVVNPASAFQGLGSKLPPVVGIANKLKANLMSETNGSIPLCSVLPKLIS
Chain of Serine/threonine-protein kinase PAK 2 (Homo sapiens) (Q13177 whole entry): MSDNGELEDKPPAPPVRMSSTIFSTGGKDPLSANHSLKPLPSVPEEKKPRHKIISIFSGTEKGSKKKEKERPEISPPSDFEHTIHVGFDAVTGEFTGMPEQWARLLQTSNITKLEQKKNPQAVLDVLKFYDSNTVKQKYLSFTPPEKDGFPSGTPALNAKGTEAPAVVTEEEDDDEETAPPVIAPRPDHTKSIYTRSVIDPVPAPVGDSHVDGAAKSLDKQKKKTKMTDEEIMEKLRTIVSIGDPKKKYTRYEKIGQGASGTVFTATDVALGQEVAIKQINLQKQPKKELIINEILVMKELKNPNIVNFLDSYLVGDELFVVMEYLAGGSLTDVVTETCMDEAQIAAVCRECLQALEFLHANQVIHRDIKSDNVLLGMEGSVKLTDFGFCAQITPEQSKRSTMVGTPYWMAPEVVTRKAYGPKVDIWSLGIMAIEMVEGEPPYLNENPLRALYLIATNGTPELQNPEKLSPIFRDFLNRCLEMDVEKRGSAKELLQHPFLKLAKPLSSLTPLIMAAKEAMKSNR
Chain of Tyrosine-protein kinase ITK/TSK (Homo sapiens) (Q08881 whole entry): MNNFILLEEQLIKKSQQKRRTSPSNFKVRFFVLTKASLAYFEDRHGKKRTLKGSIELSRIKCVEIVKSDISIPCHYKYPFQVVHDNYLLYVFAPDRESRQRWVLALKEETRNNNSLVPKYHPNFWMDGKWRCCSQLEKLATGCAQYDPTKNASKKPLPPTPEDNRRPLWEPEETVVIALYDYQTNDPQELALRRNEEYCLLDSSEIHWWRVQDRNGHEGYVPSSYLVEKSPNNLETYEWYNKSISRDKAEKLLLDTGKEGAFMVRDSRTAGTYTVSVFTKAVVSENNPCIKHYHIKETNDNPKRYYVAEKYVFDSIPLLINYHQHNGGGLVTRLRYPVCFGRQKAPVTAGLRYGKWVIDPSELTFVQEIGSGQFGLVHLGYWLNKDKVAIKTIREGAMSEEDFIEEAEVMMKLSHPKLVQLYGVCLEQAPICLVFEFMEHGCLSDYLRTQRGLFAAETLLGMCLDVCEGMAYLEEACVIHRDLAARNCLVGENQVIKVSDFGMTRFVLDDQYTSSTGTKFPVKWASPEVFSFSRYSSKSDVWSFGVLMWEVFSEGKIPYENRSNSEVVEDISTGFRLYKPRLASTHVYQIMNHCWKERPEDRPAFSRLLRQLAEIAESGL
Chain of Mitogen-activated protein kinase 1 (Homo sapiens) (P28482 whole entry): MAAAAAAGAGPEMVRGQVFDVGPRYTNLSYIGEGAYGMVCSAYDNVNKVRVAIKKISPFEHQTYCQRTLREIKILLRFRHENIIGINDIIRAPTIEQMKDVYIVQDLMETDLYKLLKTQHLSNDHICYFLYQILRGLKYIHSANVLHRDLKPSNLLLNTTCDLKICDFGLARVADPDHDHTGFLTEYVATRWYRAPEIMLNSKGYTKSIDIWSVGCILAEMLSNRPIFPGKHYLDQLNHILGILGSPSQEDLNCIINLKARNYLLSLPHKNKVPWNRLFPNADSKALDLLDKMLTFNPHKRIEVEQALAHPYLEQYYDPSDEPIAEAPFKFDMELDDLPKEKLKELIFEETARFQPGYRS
Chain of Proto-oncogene tyrosine-protein kinase Src (Homo sapiens) (P12931 2-536 limits assumed): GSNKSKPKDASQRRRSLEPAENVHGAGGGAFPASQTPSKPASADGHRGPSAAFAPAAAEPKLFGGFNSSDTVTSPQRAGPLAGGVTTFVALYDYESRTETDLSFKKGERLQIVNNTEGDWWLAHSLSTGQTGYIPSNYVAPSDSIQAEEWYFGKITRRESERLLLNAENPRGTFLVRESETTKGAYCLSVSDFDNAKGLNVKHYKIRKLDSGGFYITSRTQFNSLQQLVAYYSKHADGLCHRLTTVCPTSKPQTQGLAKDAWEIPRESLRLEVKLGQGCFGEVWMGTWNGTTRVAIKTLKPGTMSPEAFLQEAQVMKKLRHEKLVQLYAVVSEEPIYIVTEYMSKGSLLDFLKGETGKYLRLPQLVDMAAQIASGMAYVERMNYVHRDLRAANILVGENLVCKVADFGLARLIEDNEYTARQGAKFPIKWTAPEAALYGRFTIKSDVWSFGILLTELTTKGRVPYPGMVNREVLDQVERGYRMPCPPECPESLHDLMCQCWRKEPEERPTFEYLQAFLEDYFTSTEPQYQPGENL
Chain of 5'-AMP-activated protein kinase catalytic subunit alpha-1 (Homo sapiens) (Q13131 whole entry, looked up): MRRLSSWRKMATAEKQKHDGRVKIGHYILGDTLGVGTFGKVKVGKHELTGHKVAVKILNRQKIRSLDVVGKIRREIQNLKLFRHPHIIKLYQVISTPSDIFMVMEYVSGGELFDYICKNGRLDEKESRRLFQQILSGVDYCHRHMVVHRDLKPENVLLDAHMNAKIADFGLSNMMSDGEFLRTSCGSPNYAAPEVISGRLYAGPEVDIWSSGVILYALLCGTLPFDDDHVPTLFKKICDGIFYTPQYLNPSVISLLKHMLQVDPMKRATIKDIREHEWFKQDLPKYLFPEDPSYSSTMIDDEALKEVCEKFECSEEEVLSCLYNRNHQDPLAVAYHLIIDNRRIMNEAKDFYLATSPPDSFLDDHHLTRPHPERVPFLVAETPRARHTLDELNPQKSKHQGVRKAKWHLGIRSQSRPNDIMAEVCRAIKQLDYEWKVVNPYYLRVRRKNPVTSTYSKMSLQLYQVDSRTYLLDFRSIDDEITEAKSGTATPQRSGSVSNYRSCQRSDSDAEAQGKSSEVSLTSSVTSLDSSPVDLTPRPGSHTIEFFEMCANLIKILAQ
Chain of Cytoplasmic tyrosine-protein kinase BMX (Homo sapiens) (P51813 whole entry): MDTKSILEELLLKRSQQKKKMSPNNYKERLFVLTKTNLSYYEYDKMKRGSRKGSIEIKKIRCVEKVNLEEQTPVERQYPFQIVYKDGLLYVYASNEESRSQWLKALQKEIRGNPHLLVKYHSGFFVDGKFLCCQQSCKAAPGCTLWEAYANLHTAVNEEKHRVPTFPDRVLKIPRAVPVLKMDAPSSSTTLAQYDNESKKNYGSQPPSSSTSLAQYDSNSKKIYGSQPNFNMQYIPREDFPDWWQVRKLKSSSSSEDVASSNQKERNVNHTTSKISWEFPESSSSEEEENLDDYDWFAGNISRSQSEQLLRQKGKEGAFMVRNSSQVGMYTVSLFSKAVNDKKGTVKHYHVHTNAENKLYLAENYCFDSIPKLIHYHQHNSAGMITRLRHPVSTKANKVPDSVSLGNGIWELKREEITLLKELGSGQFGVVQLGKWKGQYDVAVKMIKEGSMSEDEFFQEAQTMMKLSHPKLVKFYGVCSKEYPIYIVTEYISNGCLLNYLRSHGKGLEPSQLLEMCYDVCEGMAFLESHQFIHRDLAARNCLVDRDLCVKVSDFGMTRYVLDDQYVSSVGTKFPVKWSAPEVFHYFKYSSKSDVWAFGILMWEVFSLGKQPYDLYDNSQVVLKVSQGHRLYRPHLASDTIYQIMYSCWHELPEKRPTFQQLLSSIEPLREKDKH
Chain of Platelet-derived growth factor receptor alpha (Homo sapiens) (P16234 whole entry): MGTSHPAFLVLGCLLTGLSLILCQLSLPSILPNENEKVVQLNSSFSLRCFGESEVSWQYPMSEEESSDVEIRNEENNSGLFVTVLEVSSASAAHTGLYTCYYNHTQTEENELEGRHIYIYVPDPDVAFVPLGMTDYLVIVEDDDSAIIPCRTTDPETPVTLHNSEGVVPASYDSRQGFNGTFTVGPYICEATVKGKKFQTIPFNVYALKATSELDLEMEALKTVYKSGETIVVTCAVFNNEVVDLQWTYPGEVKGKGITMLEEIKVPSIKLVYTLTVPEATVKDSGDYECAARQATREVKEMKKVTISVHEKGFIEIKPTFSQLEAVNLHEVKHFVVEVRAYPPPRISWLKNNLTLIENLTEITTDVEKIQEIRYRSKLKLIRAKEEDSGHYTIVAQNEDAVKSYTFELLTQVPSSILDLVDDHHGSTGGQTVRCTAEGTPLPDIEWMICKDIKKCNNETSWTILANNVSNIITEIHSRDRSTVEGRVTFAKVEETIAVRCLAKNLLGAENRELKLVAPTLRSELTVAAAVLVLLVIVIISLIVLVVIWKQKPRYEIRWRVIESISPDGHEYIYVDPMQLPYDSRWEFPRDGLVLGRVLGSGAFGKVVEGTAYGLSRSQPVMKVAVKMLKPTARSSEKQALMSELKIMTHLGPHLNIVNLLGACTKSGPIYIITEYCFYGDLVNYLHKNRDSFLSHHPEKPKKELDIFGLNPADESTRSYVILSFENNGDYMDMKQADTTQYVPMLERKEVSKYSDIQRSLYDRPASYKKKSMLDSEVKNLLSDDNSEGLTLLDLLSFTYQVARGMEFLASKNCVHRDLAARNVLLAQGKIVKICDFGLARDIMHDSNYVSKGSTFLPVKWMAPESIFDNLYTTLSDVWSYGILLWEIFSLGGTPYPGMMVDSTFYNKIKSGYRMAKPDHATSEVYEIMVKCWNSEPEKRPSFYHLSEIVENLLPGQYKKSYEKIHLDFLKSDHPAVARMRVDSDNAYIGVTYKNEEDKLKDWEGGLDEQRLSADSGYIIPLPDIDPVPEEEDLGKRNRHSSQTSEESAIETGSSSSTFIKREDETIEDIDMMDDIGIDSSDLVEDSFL

On to `O=C(Nc1nc2cccc(C3CCC4(CC3)CCN(C(=O)[C@@H]3CC3(F)F)CC4)n2n1)C1CC1`, for which, in “in vivo [1]”, the bioavailability at 24 h was found to be 50.1%. For the same molecule, the outcome in the data set with Mus musculus [2] was Active. Further, the Activity with Mus musculus [3] was 88%.

Consider `O=C(Nc1nc2cccc([C@H]3CC[C@@H](NC(=O)[C@@H]4CC4(F)F)CC3)n2n1)C1CC1`, for which the bioavailability at 24 h in the data set “in vivo [1]” stood at 66.6%.

For `O=C(Nc1nc2cccc(C3CCC4(CC3)CN(C(=O)[C@@H]3CC3(F)F)C4)n2n1)C1CC1`, the Activity in [4] was 93%; with Rattus norvegicus [5], 3.9; in data set [7], 86%; in the data set with Rattus norvegicus [8], 1.91 mL; in [9], 66%; in [10] it was 104%. Also, the Activity was found to be 6.1% in data set [11]; 95% in data set [12]; 109% in [13]; 129% in [14]; 104% in [15]; 57% in data set [16]. The Activity is 94% in data set [18]; 31% in data set [19]; 110% in data set [20]; 87% in data set [22]; 1.5 with Mus musculus [23]; 99% in data set [24]. The Activity amounted to 109% in the data set listed under Homo sapiens; 88% in data set [27]; 106% in [28]; 93% in data set [32]; 104% in [33]; 2.7 in the data set on Rattus norvegicus [34]. Besides, in data set [35], the Activity stood at 102%. Besides, the bioavailability at 24 h in “in vivo [6]” was determined as 121%. Moreover, the result in the data set with Mus musculus [2] and in the data set on Rattus norvegicus [26] was Active. Moreover, the clearance in data set [17] is 10.5 mL/min/kg. For the same molecule, the inhibition in vivo at 15 mg/kg with Mus musculus [21] worked out at 59.9%. Also, the AUC at 24 h in data set [25] amounted to 19600 ng·h/mL; in [29], 16700 ng·h/mL. Besides, in [30], the Vd stood at 3.23 L/kg. Besides, the highest level in “in vivo [31]” (Cmax at 24 h) was 2750 ng/mL.
